Results on seven compounds are retold here after ChEMBL document CHEMBL1697781, “Assessment of the health effects of chemicals in humans: II. Construction of an adverse effects database for QSAR modeling” (Curr Drug Discov Technol, 2004).
Throughout, for GGT Increase - Index Value: reference of the scale not given here.
Throughout, for LDH Increase - Index Value: reference of the scale not given here.

In one data set the test system is Hepatotoxicity. Nature of the data set: FDA HLAED, liver enzyme composite activity. The note with it: human.
As to `CCc1c2c(nc3ccc(OC(=O)N4CCC(N5CCCCC5)CC4)cc13)-c1cc3c(c(=O)n1C2)COC(=O)[C@]3(O)CC` [IRINOTECAN], the “Composite Activity - Active” value worked out at 0, the “Composite Activity - Marginal” value is listed as 0 and the “Composite Activity - Score” value was “Inactive”.
Regarding `FC(F)OC(Cl)C(F)(F)F` (stereo unspecified) [ISOFLURANE], the “Composite Activity - Active” value was 0, the “Composite Activity - Marginal” value is 0 and the “Composite Activity - Score” value was “Inactive”.
On to `NNC(=O)c1ccncc1` [ISONIAZID], for which the “Composite Activity - Active” value amounted to 5, the “Composite Activity - Marginal” value is 0 and the “Composite Activity - Score” value is given as “Active”.
For `O=[N+]([O-])O[C@@H]1CO[C@H]2[C@@H]1OC[C@@H]2O` [ISOSORBIDE MONONITRATE], the “Composite Activity - Active” value came to 0, the “Composite Activity - Marginal” value is listed as 0 and the “Composite Activity - Score” value is reported as “Inactive”.
As to `CC1=C(/C=C/C(C)=C/C=C/C(C)=C\C(=O)O)C(C)(C)CCC1` [ISOTRETINOIN], the “Composite Activity - Active” value is on record as 4, the “Composite Activity - Marginal” value is 0 and the “Composite Activity - Score” value is listed as “Active”.
For `COC(=O)C1=C(C)NC(C)=C(C(=O)OC(C)C)C1c1cccc2nonc12` (stereo unspecified) [ISRADIPINE] the same measures were 0, 0 and “Inactive”.
For `CCC(C)n1ncn(-c2ccc(N3CCN(c4ccc(OCC5COC(Cn6cncn6)(c6ccc(Cl)cc6Cl)O5)cc4)CC3)cc2)c1=O` (stereo unspecified) [ITRACONAZOLE] the same measures were 5, 0 and “Active”.

The next data set deals with Hepatotoxicity. Nature of the data set: FDA HLAED, alkaline phosphatase increase. The conditions noted are these: human.
Consider `CCc1c2c(nc3ccc(OC(=O)N4CCC(N5CCCCC5)CC4)cc13)-c1cc3c(c(=O)n1C2)COC(=O)[C@]3(O)CC` [IRINOTECAN], for which the “Alkaline Phosphatase Increase - Activity Score” value is given as “Inactive”, the “Alkaline Phosphatase Increase - Index Value” was determined as 4.1 and the “Alkaline Phosphatase Increase - Number of Reports” value is less than 4.
For `FC(F)OC(Cl)C(F)(F)F` (stereo unspecified) [ISOFLURANE] the same measures were “Inactive”, 0.6 and less than 4.
For `NNC(=O)c1ccncc1` [ISONIAZID] the same measures were “Active”, 12.7 and “>= 4”.
The matching figures for `O=[N+]([O-])O[C@@H]1CO[C@H]2[C@@H]1OC[C@@H]2O` [ISOSORBIDE MONONITRATE]: “Inactive”, 0 and less than 4.
Turning to `CC1=C(/C=C/C(C)=C/C=C/C(C)=C\C(=O)O)C(C)(C)CCC1` [ISOTRETINOIN], the “Alkaline Phosphatase Increase - Activity Score” value is “Active”, the “Alkaline Phosphatase Increase - Index Value” amounted to 45.7 and the “Alkaline Phosphatase Increase - Number of Reports” value was “>= 4”.
The matching figures for `COC(=O)C1=C(C)NC(C)=C(C(=O)OC(C)C)C1c1cccc2nonc12` (stereo unspecified) [ISRADIPINE]: “Inactive”, 0.5 and less than 4.
For `CCC(C)n1ncn(-c2ccc(N3CCN(c4ccc(OCC5COC(Cn6cncn6)(c6ccc(Cl)cc6Cl)O5)cc4)CC3)cc2)c1=O` (stereo unspecified) [ITRACONAZOLE] the same measures were “Active”, 12.4 and “>= 4”.

Another data set relates to Hepatotoxicity. In words: FDA HLAED, serum glutamic oxaloacetic transaminase (SGOT) increase. The note with it: human.
On to `CCc1c2c(nc3ccc(OC(=O)N4CCC(N5CCCCC5)CC4)cc13)-c1cc3c(c(=O)n1C2)COC(=O)[C@]3(O)CC` [IRINOTECAN], for which the “SGOT Increase - Activity Score” value is reported as “Inactive”, the “SGOT Increase - Index Value” was 6.1 and the “SGOT Increase - Number of Reports” value was less than 4.
For `FC(F)OC(Cl)C(F)(F)F` (stereo unspecified) [ISOFLURANE] the same measures were “Inactive”, 1 and “>= 4”.
The matching figures for `NNC(=O)c1ccncc1` [ISONIAZID]: “Active”, 38.7 and “>= 4”.
For `O=[N+]([O-])O[C@@H]1CO[C@H]2[C@@H]1OC[C@@H]2O` [ISOSORBIDE MONONITRATE] the same measures were “Inactive”, 0.2 and less than 4.
As for `CC1=C(/C=C/C(C)=C/C=C/C(C)=C\C(=O)O)C(C)(C)CCC1` [ISOTRETINOIN], the “SGOT Increase - Activity Score” value is “Active”, the “SGOT Increase - Index Value” was found to be 98.4 and the “SGOT Increase - Number of Reports” value is “>= 4”.
The matching figures for `COC(=O)C1=C(C)NC(C)=C(C(=O)OC(C)C)C1c1cccc2nonc12` (stereo unspecified) [ISRADIPINE]: “Inactive”, 0.8 and “>= 4”.
For `CCC(C)n1ncn(-c2ccc(N3CCN(c4ccc(OCC5COC(Cn6cncn6)(c6ccc(Cl)cc6Cl)O5)cc4)CC3)cc2)c1=O` (stereo unspecified) [ITRACONAZOLE] the same measures were “Active”, 19.6 and “>= 4”.

A further data set deals with Hepatotoxicity. In words: FDA HLAED, serum glutamic pyruvic transaminase (SGPT) increase. The conditions noted are these: human.
On to `CCc1c2c(nc3ccc(OC(=O)N4CCC(N5CCCCC5)CC4)cc13)-c1cc3c(c(=O)n1C2)COC(=O)[C@]3(O)CC` [IRINOTECAN], for which the “SGPT Increase - Activity Score” value was “Inactive”, the “SGPT Increase - Index Value” amounted to 6.1 and the “SGPT Increase - Number of Reports” value is less than 4.
The matching figures for `FC(F)OC(Cl)C(F)(F)F` (stereo unspecified) [ISOFLURANE]: “Inactive”, 0.4 and less than 4.
The matching figures for `NNC(=O)c1ccncc1` [ISONIAZID]: “Active”, 34.7 and “>= 4”.
For the compound `O=[N+]([O-])O[C@@H]1CO[C@H]2[C@@H]1OC[C@@H]2O` [ISOSORBIDE MONONITRATE], the “SGPT Increase - Activity Score” value is on record as “Inactive”, the “SGPT Increase - Index Value” stood at 0.5 and the “SGPT Increase - Number of Reports” value is on record as less than 4.
For `CC1=C(/C=C/C(C)=C/C=C/C(C)=C\C(=O)O)C(C)(C)CCC1` [ISOTRETINOIN] the same measures were “Active”, 63.7 and “>= 4”.
The matching figures for `COC(=O)C1=C(C)NC(C)=C(C(=O)OC(C)C)C1c1cccc2nonc12` (stereo unspecified) [ISRADIPINE]: “Inactive”, 0.7 and “>= 4”.
With `CCC(C)n1ncn(-c2ccc(N3CCN(c4ccc(OCC5COC(Cn6cncn6)(c6ccc(Cl)cc6Cl)O5)cc4)CC3)cc2)c1=O` (stereo unspecified) [ITRACONAZOLE], the “SGPT Increase - Activity Score” value is “Active”, the “SGPT Increase - Index Value” is given as 19.8 and the “SGPT Increase - Number of Reports” value is given as “>= 4”.

The next data set deals with Hepatotoxicity. In words: FDA HLAED, lactate dehydrogenase (LDH) increase. The note with it: human.
`CCc1c2c(nc3ccc(OC(=O)N4CCC(N5CCCCC5)CC4)cc13)-c1cc3c(c(=O)n1C2)COC(=O)[C@]3(O)CC` [IRINOTECAN]: the “LDH Increase - Activity Score” value was “Inactive”, the “LDH Increase - Index Value” stood at 4.1 and the “LDH Increase - Number of Reports” value is less than 4.
The matching figures for `FC(F)OC(Cl)C(F)(F)F` (stereo unspecified) [ISOFLURANE]: “Inactive”, 0 and less than 4.
For `NNC(=O)c1ccncc1` [ISONIAZID] the same measures were “Active”, 10 and “>= 4”.
The matching figures for `O=[N+]([O-])O[C@@H]1CO[C@H]2[C@@H]1OC[C@@H]2O` [ISOSORBIDE MONONITRATE]: “Inactive”, 0.2 and less than 4.
As for `CC1=C(/C=C/C(C)=C/C=C/C(C)=C\C(=O)O)C(C)(C)CCC1` [ISOTRETINOIN], the “LDH Increase - Activity Score” value is “Active”, the “LDH Increase - Index Value” worked out at 54 and the “LDH Increase - Number of Reports” value is recorded as “>= 4”.
Consider `COC(=O)C1=C(C)NC(C)=C(C(=O)OC(C)C)C1c1cccc2nonc12` (stereo unspecified) [ISRADIPINE], for which the “LDH Increase - Activity Score” value is listed as “Inactive”, the “LDH Increase - Index Value” stood at 0.3 and the “LDH Increase - Number of Reports” value was less than 4.
The matching figures for `CCC(C)n1ncn(-c2ccc(N3CCN(c4ccc(OCC5COC(Cn6cncn6)(c6ccc(Cl)cc6Cl)O5)cc4)CC3)cc2)c1=O` (stereo unspecified) [ITRACONAZOLE]: “Active”, 5.8 and “>= 4”.

The next data set concerns Hepatotoxicity. Nature of the data set: FDA HLAED, gamma-glutamyl transferase (GGT) increase. The note with it: human.
For `CCc1c2c(nc3ccc(OC(=O)N4CCC(N5CCCCC5)CC4)cc13)-c1cc3c(c(=O)n1C2)COC(=O)[C@]3(O)CC` [IRINOTECAN], the “GGT Increase - Activity Score” value is “Inactive”, the “GGT Increase - Index Value” amounted to 2 and the “GGT Increase - Number of Reports” value is less than 4.
As for `FC(F)OC(Cl)C(F)(F)F` (stereo unspecified) [ISOFLURANE], the “GGT Increase - Activity Score” value is “Inactive”, the “GGT Increase - Index Value” is on record as 0 and the “GGT Increase - Number of Reports” value is less than 4.
On to `NNC(=O)c1ccncc1` [ISONIAZID], for which the “GGT Increase - Activity Score” value is recorded as “Active”, the “GGT Increase - Index Value” stood at 8 and the “GGT Increase - Number of Reports” value was “>= 4”.
The matching figures for `O=[N+]([O-])O[C@@H]1CO[C@H]2[C@@H]1OC[C@@H]2O` [ISOSORBIDE MONONITRATE]: “Inactive”, 0 and less than 4.
For `CC1=C(/C=C/C(C)=C/C=C/C(C)=C\C(=O)O)C(C)(C)CCC1` [ISOTRETINOIN] the same measures were “Inactive”, 0 and less than 4.
For `COC(=O)C1=C(C)NC(C)=C(C(=O)OC(C)C)C1c1cccc2nonc12` (stereo unspecified) [ISRADIPINE] the same measures were “Inactive”, 0.2 and less than 4.
Turning to `CCC(C)n1ncn(-c2ccc(N3CCN(c4ccc(OCC5COC(Cn6cncn6)(c6ccc(Cl)cc6Cl)O5)cc4)CC3)cc2)c1=O` (stereo unspecified) [ITRACONAZOLE], the “GGT Increase - Activity Score” value is reported as “Active”, the “GGT Increase - Index Value” was determined as 14.1 and the “GGT Increase - Number of Reports” value is on record as “>= 4”.
